Experimental data: ChEMBL document CHEMBL6178016, “Design, Synthesis, and Biological Evaluation of New PDE4 Inhibitors for the Treatment of Pressure Ulcers” (J Med Chem, 2025)
Active and inactive are the calls of the source. No cut-off for these calls is given here.

Tests used:
[1] = molecular target: T1, 3',5'-cyclic-AMP phosphodiesterase 4D (Homo sapiens, UniProt Q08499); test: Inhibition of PDE4D (unknown origin) at 1 uM relative to control
RAW264.7 [2] = test: Cytotoxicity against mouse RAW264.7 cells at 10 uM measured after 24 hrs by CCK-8 method; type: functional, cell-based
Rattus norvegicus [3] = test: Antiinflammatory activity against male Sprague-Dawley rat pressure ulcer model assessed as wound healing rate administration as ointment measured after 7 days (reference value: 70%); type: functional; settings: time 7 day
Rattus norvegicus [4] = test: Antiinflammatory activity against male Sprague-Dawley rat pressure ulcer model assessed as reduction in IL6 mRNA expression in skin administered as ointment by qRT-PCR analysis; type: functional, organism-based
Rattus norvegicus [5] = test: Antiinflammatory activity against male Sprague-Dawley rat pressure ulcer model assessed as reduction in TNF-alpha mRNA expression in skin administered as ointment by qRT-PCR analysis; type: functional, organism-based
Rattus norvegicus [6] = test: Antiinflammatory activity against male Sprague-Dawley rat pressure ulcer model assessed as appearance of thinner epidermal layer administered as ointment by H and E staining based analysis; type: functional, organism-based
Rattus norvegicus [7] = test: Antiinflammatory activity against male Sprague-Dawley rat pressure ulcer model assessed as decrease in inflammatory cells in dermis administered as ointment by H and E staining based analysis; type: functional, organism-based
Rattus norvegicus [8] = test: Antiinflammatory activity against male Sprague-Dawley rat pressure ulcer model assessed as increase in number of fibroblasts administered as ointment by H and E staining based analysis; type: functional, organism-based
Rattus norvegicus [9] = test: Antiinflammatory activity against male Sprague-Dawley rat pressure ulcer model assessed as appearance of orderly arranged cells administered as ointment by H and E staining based analysis; type: functional, organism-based
Rattus norvegicus [10] = test: Antiinflammatory activity against male Sprague-Dawley rat pressure ulcer model assessed as appearance of orderly arranged cells administered as ointment by Masson staining based analysis; type: functional, organism-based
Rattus norvegicus [11] = test: Antiinflammatory activity against male Sprague-Dawley rat pressure ulcer model assessed as increase in number of fibroblasts administered as ointment by Masson staining based analysis; type: functional, organism-based
Rattus norvegicus [12] = test: Antiinflammatory activity against male Sprague-Dawley rat pressure ulcer model assessed as decrease in inflammatory cells in dermis administered as ointment by Masson staining based analysis; type: functional, organism-based
Rattus norvegicus [13] = test: Antiinflammatory activity against male Sprague-Dawley rat pressure ulcer model assessed as appearance of thinner epidermal layer administered as ointment by Masson staining based analysis; type: functional, organism-based
[14] = molecular target: T1, 3',5'-cyclic-AMP phosphodiesterase 4D; test: Inhibition of PDE4D (unknown origin)
Enterococcus faecalis = test: Antibacterial activity against Enterococcus faecalis BNCC296862 assessed as reduction in bacterial colonies growth at 512 ug/ml measured after 24 hrs by agar plate method; type: functional, organism-based; settings: dose 512.0 µg/ml
Enterococcus faecium = test: Antibacterial activity against Enterococcus faecium BNCC358275 assessed as reduction in bacterial colonies growth at 512 ug/ml measured after 24 hrs by agar plate method; type: functional, organism-based; settings: dose 512.0 µg/ml
RAW264.7 [15] = test: Cytotoxicity against mouse RAW264.7 cells measured after 24 hrs by CCK-8 method; type: functional
RAW264.7 [16] = test: Antiinflammatory activity against mouse RAW264.7 cells assessed as inhibition of LPS-induced TNF-alpha release preincubated for 2 hrs followed by LPS stimulation and measured after 4 hrs by RT-PCR analysis; type: functional, cell-based
RAW264.7 [17] = test: Antiinflammatory activity against mouse RAW264.7 cells assessed as inhibition of LPS-induced NO release preincubated for 2 hrs followed by LPS stimulation and measured after 4 hrs by RT-PCR analysis; type: functional, cell-based

T1 sequence (Q08499 whole entry): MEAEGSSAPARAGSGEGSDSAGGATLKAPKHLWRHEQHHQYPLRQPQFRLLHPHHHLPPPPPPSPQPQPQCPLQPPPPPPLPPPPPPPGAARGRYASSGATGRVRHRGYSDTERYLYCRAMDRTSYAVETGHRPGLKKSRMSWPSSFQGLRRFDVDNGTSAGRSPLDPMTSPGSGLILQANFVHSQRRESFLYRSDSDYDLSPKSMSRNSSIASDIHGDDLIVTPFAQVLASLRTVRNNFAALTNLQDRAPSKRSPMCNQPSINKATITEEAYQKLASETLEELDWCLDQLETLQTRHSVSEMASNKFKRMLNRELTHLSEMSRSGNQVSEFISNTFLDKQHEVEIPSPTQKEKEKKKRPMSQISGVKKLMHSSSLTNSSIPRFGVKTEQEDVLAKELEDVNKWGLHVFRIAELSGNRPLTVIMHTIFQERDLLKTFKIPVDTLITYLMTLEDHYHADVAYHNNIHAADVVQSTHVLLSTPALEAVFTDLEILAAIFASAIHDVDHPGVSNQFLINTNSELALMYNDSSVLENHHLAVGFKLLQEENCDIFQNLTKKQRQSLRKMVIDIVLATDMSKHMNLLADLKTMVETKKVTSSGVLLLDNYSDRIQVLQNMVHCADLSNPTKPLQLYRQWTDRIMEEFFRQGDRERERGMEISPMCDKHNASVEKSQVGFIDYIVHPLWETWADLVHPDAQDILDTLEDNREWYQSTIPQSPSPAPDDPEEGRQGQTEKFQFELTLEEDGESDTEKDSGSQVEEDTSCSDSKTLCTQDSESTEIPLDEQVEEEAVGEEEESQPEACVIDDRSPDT

Compound | inhibition [1] [%] | Activity (RAW264.7 [2]) | also measured
Cn1c(=O)c2c(ncn2CCC(=O)NNC(=O)c2c[nH]c(-c3ccc(OC(F)F)c(OCC4CC4)c3)n2)n(C)c1=O | 96.4 | inactive | 
Cn1c(=O)c2c(nc(Br)n2CCCC(=O)NNC(=O)c2csc(-c3ccc(OC(F)F)c(OCC4CC4)c3)n2)n(C)c1=O | 97.2 | inactive | 
Cn1c(=O)c2c(ncn2CCCC(=O)NNC(=O)c2cnn3c(-c4ccc(OC(F)F)c(OCC5CC5)c4)ccnc23)n(C)c1=O | 85.7 | inactive | 
Cn1c(=O)c2c(ncn2CCC(=O)NNC(=O)c2cnn3c(-c4ccc(OC(F)F)c(OCC5CC5)c4)ccnc23)n(C)c1=O | 38.8 | inactive | 
Cn1c(=O)c2c(nc(NCc3ccccc3)n2CCCC(=O)NNC(=O)c2cccc3[nH]c(-c4ccc(OC(F)F)c(OCC5CC5)c4)nc23)n(C)c1=O | 85.7 | inactive | 
Cn1c(=O)c2c(nc(Br)n2CCCC(=O)NNC(=O)c2cccc3[nH]c(-c4ccc(OC(F)F)c(OC(F)F)c4)nc23)n(C)c1=O | 96.8 | inactive | 
Cn1c(=O)c2c(ncn2CCC(=O)NNC(=O)c2cccc3[nH]c(-c4ccc(OC(F)F)c(OCC5CC5)c4)nc23)n(C)c1=O | 96.9 | inactive | 
Cn1c(=O)c2c(ncn2CCCC(=O)NNC(=O)c2csc(-c3ccc(OC(F)F)c(OCC4CC4)c3)n2)n(C)c1=O | 98.4 | inactive | 
Cn1c(=O)c2c(nc(NCc3ccccc3)n2CCCC(=O)NNC(=O)c2cnn3c(-c4ccc(OC(F)F)c(OCC5CC5)c4)ccnc23)n(C)c1=O | 30.3 | inactive | 
Cn1c(=O)c2c(ncn2CCC(=O)NNC(=O)c2c[nH]c(-c3ccc(OC(F)F)c(OC(F)F)c3)n2)n(C)c1=O | 82.1 | inactive | 
O=C(Nc1c(Cl)cncc1Cl)c1ccc(OC(F)F)c(OCC2CC2)c1 [ROFLUMILAST] |  |  | Activity (Rattus norvegicus [3]): 81%; Activity (Rattus norvegicus [4]): Active; Activity (Rattus norvegicus [5]): Active; Activity (Rattus norvegicus [6]): Active; Activity (Rattus norvegicus [7]): Active; Activity (Rattus norvegicus [8]): Active; Activity (Rattus norvegicus [9]): Active; Activity (Rattus norvegicus [10]): Active; Activity (Rattus norvegicus [11]): Active; Activity (Rattus norvegicus [12]): Active; Activity (Rattus norvegicus [13]): Active
Cn1c(=O)c2c(ncn2CCC(=O)NNC(=O)c2cccc3[nH]c(-c4ccc(OC(F)F)c(OC(F)F)c4)nc23)n(C)c1=O | 92.6 | inactive | IC50 [14]: 0.029 µM
Cn1c(=O)c2c(ncn2CCC(=O)NNC(=O)c2coc(-c3ccc(OC(F)F)c(OCC4CC4)c3)n2)n(C)c1=O | 63 | inactive | 
CN[C@H](CC(C)C)C(=O)N[C@H]1C(=O)N[C@@H](CC(N)=O)C(=O)N[C@H]2C(=O)N[C@H]3C(=O)N[C@H](C(=O)N[C@H](C(=O)O)c4cc(O)cc(O)c4-c4cc3ccc4O)[C@H](O)c3ccc(c(Cl)c3)Oc3cc2cc(c3O[C@@H]2O[C@H](CO)[C@@H](O)[C@H](O)[C@H]2O[C@H]2C[C@](C)(N)[C@H](O)[C@H](C)O2)Oc2ccc(cc2Cl)[C@H]1O |  |  | Activity (Enterococcus faecalis): Active; Activity (Enterococcus faecium): Active
Cn1c(=O)c2c(nc(NCc3ccccc3)n2CCCC(=O)NNC(=O)c2csc(-c3ccc(OC(F)F)c(OCC4CC4)c3)n2)n(C)c1=O | 89.9 | inactive | 
Cn1c(=O)c2c(ncn2CCCC(=O)NNC(=O)c2coc(-c3ccc(OC(F)F)c(OCC4CC4)c3)n2)n(C)c1=O | 92.4 | inactive | 
Cn1c(=O)c2c(nc(Br)n2CCCC(=O)NNC(=O)c2cccc3[nH]c(-c4ccc(OC(F)F)c(OCC5CC5)c4)nc23)n(C)c1=O | 99.2 | inactive | 
Cn1c(=O)c2c(nc(Br)n2CCCC(=O)NNC(=O)c2coc(-c3ccc(OC(F)F)c(OCC4CC4)c3)n2)n(C)c1=O | 85.3 | inactive | 
Cn1c(=O)c2c(nc(NCc3ccccc3)n2CCCC(=O)NNC(=O)c2cc3nccc(-c4ccc(OC(F)F)c(OCC5CC5)c4)n3n2)n(C)c1=O | 43 | inactive | 
Cn1c(=O)c2c(ncn2CCCC(=O)NNC(=O)c2cccc3[nH]c(-c4ccc(OC(F)F)c(OCC5CC5)c4)nc23)n(C)c1=O | 96.8 | inactive | 
Cn1c(=O)c2c(nc(NCc3ccccc3)n2CCCC(=O)NNC(=O)c2cccc3[nH]c(-c4ccc(OC(F)F)c(OC(F)F)c4)nc23)n(C)c1=O | 92.4 | inactive | 
COc1ccc(C2CNC(=O)C2)cc1OC1CCCC1 (stereo not given) [ROLIPRAM] |  |  | CC50 (RAW264.7 [15]): > 60 µM; IC50 (RAW264.7 [16]): 39.9 µM; IC50 (RAW264.7 [17]): > 60 µM
Cn1c(=O)c2c(ncn2CCCC(=O)NNC(=O)c2cccc3[nH]c(-c4ccc(OC(F)F)c(OC(F)F)c4)nc23)n(C)c1=O | 97.9 | inactive | IC50 [14]: 0.041 µM; CC50 (RAW264.7 [15]): 76.8 µM; IC50 (RAW264.7 [16]): > 60 µM; IC50 (RAW264.7 [17]): 2.18 µM
Cn1c(=O)c2c(ncn2CCCC(=O)NNC(=O)c2cc3nccc(-c4ccc(OC(F)F)c(OCC5CC5)c4)n3n2)n(C)c1=O | 95.6 | inactive | 
Cn1c(=O)c2c(nc(Br)n2CCCC(=O)NNC(=O)c2cc3nccc(-c4ccc(OC(F)F)c(OCC5CC5)c4)n3n2)n(C)c1=O | 94.7 | inactive | IC50 [14]: 0.276 µM
Cn1c(=O)c2c(ncn2CCC(=O)NNC(=O)c2csc(-c3ccc(OC(F)F)c(OCC4CC4)c3)n2)n(C)c1=O | 87.5 | inactive | 
Cn1c(=O)c2c(nc(NCc3ccccc3)n2CCCC(=O)NNC(=O)c2coc(-c3ccc(OC(F)F)c(OCC4CC4)c3)n2)n(C)c1=O | 85.5 | inactive | 
